From patent publication US6409810B1, “Water-soluble trisazo compounds, aqueous ink composition and colored article” (Nippon Kayaku Kabushiki Kaisha, priority 1997, dated 2002)

How the values were obtained:
Type in all cases: physicochemical
[1] = Color rendering property (hue change under tungsten light versus standard light source, visual); set-up: key: ∘: Change in hue was small.; Δ: Change in hue was somewhat large.; X: Change in hue was large; details: hue change under tungsten light compared with standard light source
Protocol: (§1) A liquid having the following formulation was prepared and passed through a 0.45 μm membrane filter to obtain an aqueous ink composition for ink jet printers.
(§2) An ink jet recording was conducted on three different papers, i.e. plain papers (Canon printer paper A4 (TLB5A4S)), ink jet papers A (Color BJ Paper LC 101; ex. Canon) and ink jet papers B (coated papers for ink jet printer STX73 A4; ex. Sharp) by means of an ink jet printer (trade name NOVA JET III; ex. ENCAD). The thus-recorded images were tested with respect to the resistances to light and water and a color rendering property.
Discoloration was judged by the visual examination by comparing the hue change under the tungsten light with that under the standard light source.

[2] = Test for resistance to light of the recorded images (carbon arc fade meter, Blue Scale JIS L-0841); details: 20 hours carbon arc fade meter; for light fastness (rank) ink jet paper A: ink jet print on ink jet paper A (Color BJ Paper LC 101, Canon); for light fastness (rank) ink jet paper B: ink jet print on ink jet paper B (coated paper STX73 A4, Sharp); for light fastness (rank) plain paper: ink jet print on plain paper (Canon TLB5A4S)
Protocol: as §1, §2
The recorded images were irradiated with light for 20 hours by means of a carbon arc fade meter (ex. SUGA Shikenkisha). Light fastness was judged according to the Blue Scale for light resistance standard as defined in JIS L-0841.

[3] = Test for resistance to water of the recorded images (immersion in water, visual examination of dropout); set-up: key to water fastness plain paper: ∘: Less amount of the compound was dropped out.; Δ: About half of the compound was dropped out.; X: Large amount of the compound was dropped out; details: immersed in water 2 minutes with mild stirring, dried; for water fastness ink jet paper A: ink jet print on ink jet paper A; for water fastness ink jet paper B: ink jet print on ink jet paper B; for water fastness plain paper: ink jet print on plain paper
Protocol: as §1, §2
Test specimen was immersed in water contained in a beaker with mild stirring for 2 minutes and dried. Amount of the compound was observed by the visual examination before and after the immersion, and dropout of the compound was judged.

| Compound | color rendering property [1] | light fastness (rank) ink jet paper A [2] | light fastness (rank) ink jet paper B [2] | light fastness (rank) plain paper [2] | water fastness ink jet paper A [3] | water fastness ink jet paper B [3] | water fastness plain paper [3] |
| --- | --- | --- | --- | --- | --- | --- | --- |
| Nc1cc2c(O)c(N=Nc3ccc(N=Nc4ccc(S(=O)(=O)[O-])cc4)c4ccc(S(=O)(=O)[O-])cc34)c(S(=O)(=O)[O-])cc2cc1S(=O)(=O)[O-].[Na+].[Na+].[Na+].[Na+] [compound 1, C.I. Food Black 2, reference compound] | Δ | 3 rank | 4-5 rank | 4-5 rank | ◯ | – | – |
| Nc1ccc2cc(S(=O)(=O)O)c(N=Nc3ccc(N=Nc4cc(C(=O)O)cc(C(=O)O)c4)c4ccccc34)c(O)c2c1 [compound 2, reference compound] | – | 2 rank | 4 rank | 4 rank | ◯ | ◯ | ◯ |
| COc1cc(N=Nc2cc(S(=O)(=O)O)cc3cc(S(=O)(=O)O)cc(O)c23)c(C)cc1N=Nc1c(S(=O)(=O)O)cc2ccc(N=Nc3cc(S(=O)(=O)O)c(N)cc3N)cc2c1O [compound 0005] | ◯ | 4-5 rank | 5 rank | 5 rank | ◯ | ◯ | Δ˜◯ |
| COCCOc1cc(N=Nc2cc(S(=O)(=O)O)cc3cc(S(=O)(=O)O)cc(O)c23)c(NC(C)=O)cc1N=Nc1c(S(=O)(=O)O)cc2ccc(N=Nc3cc(S(=O)(=O)O)c(N)cc3N)cc2c1O [compound 0022] | ◯ | 5 rank | 5 rank | 5 rank | ◯ | ◯ | Δ˜◯ |
| O=S(=O)(O)c1cc(O)c2c(N=Nc3ccc(N=Nc4c(S(=O)(=O)O)cc5ccc(N=Nc6ccc(O)cc6O)cc5c4O)c4cc(S(=O)(=O)O)ccc34)cc(S(=O)(=O)O)cc2c1 [compound 0025] | ◯ | 3 rank | 4 rank | 4-5 rank | ◯ | ◯ | x˜Δ |
| Nc1cc(N)c(S(=O)(=O)O)cc1N=Nc1ccc2cc(S(=O)(=O)O)c(N=Nc3ccc(N=Nc4cc(S(=O)(=O)O)cc5cc(S(=O)(=O)O)cc(O)c45)c4ccc(S(=O)(=O)O)cc34)c(O)c2c1 [compound 0027] | ◯ | 4 rank | 5 rank | 5 rank | ◯ | ◯ | x˜Δ |
| COc1cc(N=Nc2cc(S(=O)(=O)O)cc3cc(S(=O)(=O)O)cc(O)c23)c(N)cc1N=Nc1c(S(=O)(=O)O)cc2ccc(N=Nc3cc(S(=O)(=O)O)c(N)cc3N)cc2c1O [compound 0048] | ◯ | 4 rank | 5 rank | 4-5 rank | ◯ | ◯ | ◯ |
| COCCOc1cc(N=Nc2cc(S(=O)(=O)O)cc3cc(S(=O)(=O)O)cc(O)c23)c(N)cc1N=Nc1c(S(=O)(=O)O)cc2ccc(N=Nc3cc(S(=O)(=O)O)c(N)cc3N)cc2c1O [compound 0051] | ◯ | 4 rank | 5 rank | 4-5 rank | ◯ | ◯ | ◯ |

Now from value to molecule:

| color rendering property [1] | light fastness (rank) ink jet paper A [2] | light fastness (rank) ink jet paper B [2] | light fastness (rank) plain paper [2] | water fastness ink jet paper A [3] | water fastness ink jet paper B [3] | water fastness plain paper [3] | Compound |
| --- | --- | --- | --- | --- | --- | --- | --- |
| ◯ | 4-5 rank | 5 rank | 5 rank | ◯ | ◯ | Δ˜◯ | COc1cc(N=Nc2cc(S(=O)(=O)O)cc3cc(S(=O)(=O)O)cc(O)c23)c(C)cc1N=Nc1c(S(=O)(=O)O)cc2ccc(N=Nc3ccc(N)cc3N)cc2c1O [compound 0001] |
| ◯ | 4 rank | 5 rank | 4-5 rank | ◯ | ◯ | Δ˜◯ | COc1cc(N=Nc2cc(S(=O)(=O)O)cc3cc(S(=O)(=O)O)cc(O)c23)c(C)cc1N=Nc1c(S(=O)(=O)O)cc2ccc(N=Nc3ccc(N)cc3O)cc2c1O [compound 0002] |
| ◯ | 3-4 rank | 4-5 rank | 4-5 rank | ◯ | ◯ | Δ | COc1cc(N=Nc2cc(S(=O)(=O)O)cc3cc(S(=O)(=O)O)cc(O)c23)c(C)cc1N=Nc1c(S(=O)(=O)O)cc2ccc(N=Nc3ccc(O)cc3O)cc2c1O [compound 0003] |
| ◯ | 3-4 rank | 4 rank | 4 rank | ◯ | ◯ | ◯ | COc1cc(N=Nc2cc(S(=O)(=O)O)cc3cc(S(=O)(=O)O)cc(O)c23)c(C)cc1N=Nc1c(S(=O)(=O)O)cc2ccc(N=Nc3ccc(NCC(=O)O)cc3NCC(=O)O)cc2c1O [compound 0007] |
| ◯ | 4 rank | 4 rank | 4-5 rank | ◯ | ◯ | Δ˜◯ | COc1cc(N=Nc2cc(S(=O)(=O)O)cc3cc(S(=O)(=O)O)cc(O)c23)c(NC(C)=O)cc1N=Nc1c(S(=O)(=O)O)cc2ccc(N=Nc3ccc(N)cc3O)cc2c1O [compound 0011] |
| ◯ | 3-4 rank | 4 rank | 4-5 rank | ◯ | ◯ | Δ | COc1cc(N=Nc2cc(S(=O)(=O)O)cc3cc(S(=O)(=O)O)cc(O)c23)c(NC(C)=O)cc1N=Nc1c(S(=O)(=O)O)cc2ccc(N=Nc3ccc(O)cc3O)cc2c1O [compound 0012] |
| ◯ | 5 rank | 5 rank | 5 rank | ◯ | ◯ | Δ | COc1cc(N=Nc2cc(S(=O)(=O)O)cc3cc(S(=O)(=O)O)cc(O)c23)c(NC(C)=O)cc1N=Nc1c(S(=O)(=O)O)cc2ccc(N=Nc3cc(S(=O)(=O)O)c(N)cc3N)cc2c1O [compound 0014] |
| ◯ | 5 rank | 5 rank | 5 rank | ◯ | ◯ | Δ˜◯ | COCCOc1cc(N=Nc2cc(S(=O)(=O)O)cc3cc(S(=O)(=O)O)cc(O)c23)c(NC(C)=O)cc1N=Nc1c(S(=O)(=O)O)cc2ccc(N=Nc3ccc(N)cc3N)cc2c1O [compound 0019] |
| ◯ | 4 rank | 5 rank | 4-5 rank | ◯ | ◯ | Δ˜◯ | COCCOc1cc(N=Nc2cc(S(=O)(=O)O)cc3cc(S(=O)(=O)O)cc(O)c23)c(NC(C)=O)cc1N=Nc1c(S(=O)(=O)O)cc2ccc(N=Nc3ccc(N)cc3O)cc2c1O [compound 0020] |
| ◯ | 4 rank | 5 rank | 4-5 rank | ◯ | ◯ | Δ | COc1cc(N=Nc2cc(S(=O)(=O)O)cc3cc(S(=O)(=O)O)cc(O)c23)c(NC(C)=O)cc1N=Nc1c(S(=O)(=O)O)cc2cc(S(=O)(=O)O)c(N=Nc3ccc(N)cc3O)cc2c1O [compound 0231] |
| ◯ | 4 rank | 4 rank | 4 rank | ◯ | ◯ | Δ˜◯ | COc1cc(N=Nc2cc(S(=O)(=O)O)cc3cc(S(=O)(=O)O)cc(O)c23)c(NC(C)=O)cc1N=Nc1c(S(=O)(=O)O)cc2cc(S(=O)(=O)O)c(N=Nc3ccc(O)cc3O)cc2c1O [compound 0232] |
